Data reported in US8012941B2, “Carba-nucleoside analogs for antiviral treatment” (Gilead Sciences, Inc., priority 2008, dated 2011).
Read-outs that look alike come from different tables or passages of the source.

Assays:
HCV replicon cells = assay: HCV EC50 determination: replicon cells, luciferase readout; format: cell-based; settings: Hepatitis C virus, 72 h
Protocol: Replicon cells were seeded in 96-well plates at a density of 8×10^3 cells per well in 100 μL of culture medium, excluding Geneticin. Compound was serially diluted in 100% DMSO and then added to the cells at a 1:200 dilution, achieving a final concentration of 0.5% DMSO and a total volume of 200 μL. Plates were incubated at 37° C. for 3 days, after which culture medium was removed and cells were lysed in lysis buffer provided by Promega's luciferase assay system. Following the manufacturer's instruction, 100 μL of luciferase substrate was added to the lysed cells and luciferase activity was measured in a TopCount luminometer.

HCV Δ21 NS5b polymerase = target: T1, HCV Δ21 NS5b polymerase (Hepatitis C virus genotype 1b, UniProt Q9WMX2); assay: HCV IC50 determination: NS5b polymerase assay; format: biochemical; settings: triphosphates of the listed examples, 35° C., 90 min
T1 construct: 75 nM HCV Δ21 NS5b polymerase
Protocol: Assay Protocol: NS5b polymerase assay (40 μL) was assembled by adding 28 μL polymerase mixture (final concentration: 50 mM Tris-HCl at pH 7.5, 10 mM KCL, 5 mM MgCl2, 1 mM DTT, 10 mM EDTA, 4 ng/μL of RNA template, and 75 nM HCV Δ21 NS5b polymerase) to assay plates followed by 4 μL of compound dilution. The polymerase and compound were pre-incubated at 35° C. for 10 minute before the addition of 8 μL of nucleotide substrate mixture (33P-α-labeled competing nucleotide at KM and 0.5 mM of the remaining three nucleotides). The assay plates were covered and incubated at 35° C. for 90 min. Reactions were then filtered through 96-well DEAE-81 filter plates via vacuum. The filter plates were then washed under vacuum with multiple volumes of 0.125 M NaHPO4, water, and ethanol to remove unincorporated label. Plates were then counted on TopCount to assess the level of product synthesis over background controls. The IC50 value was determined using Prism fitting program.

[1] = replicon cells, 3 days at 37° C., luciferase activity, read-out: EC50

Row | Compound | EC50 (HCV replicon cells; [1]) [µM] | EC50 (HCV replicon cells) [µM] | other results
1 | C[C@@]1(O)[C@H](O)[C@@H](CO)O[C@H]1c1cnc2c(N)ncnn12 [Compound 1, (2S,3R,4R,5 R)-2-(4-aminoimidazo[1,2-f][1,2,4]triazin-7-yl)-5-(hydroxymethyl)-3-methyl-tetrahydrofuran-3,4-diol] | < 10 |  | 
2 | C[C@@]1(O)[C@H](O)[C@@H](CO)O[C@H]1c1cnc2c(N)nc(N)nn12 [Compound 3] | < 250 |  | 
3 | CC(C)OC(=O)[C@H](C)NP(=O)(OC[C@H]1O[C@@H](c2nnc3c(=O)[nH]c(N)nn23)[C@](C)(O)[C@@H]1O)Oc1ccc(Cl)cc1 (stereo partly drawn) [Compound 9] |  | < 250 | 
4 | CNc1ncnn2c([C@@H]3O[C@H](CO)[C@@H](O)[C@@]3(C)O)cnc12 [Compound 17] | < 10 |  | 
5 | CNc1ncnn2c([C@@H]3O[C@H](COP(=O)(OCCSC(=O)C(C)(C)C)OCCSC(=O)C(C)(C)C)[C@@H](O)[C@@]3(C)O)cnc12 [Compound 18] |  | < 10 | 
6 | (2S,3R,4R,5 R)-2-(4-aminoimidazo[1,2-f][1,2,4]triazin-7-yl)-5-(hydroxymethyl)-3-methyl-tetrahydrofuran-3,4-diol [Compound 1] |  |  | IC50 (HCV Δ21 NS5b polymerase): < 10 µM
